Values of other authors as cited in publication PMC11011029, “Design and Preclinical Evaluation of a Novel Prostate-Specific Membrane Antigen Radioligand Modified with a Transthyretin Binder” (Cancers, 2024).

Assays:
PSMA = molecular target: T1, PSMA (Homo sapiens, UniProt Q04609); set-up: method as in PMID 32042329; conditions: read-out: PSMA-binding affinity KD
T1 construct: expressed in transfected cells; host or cells: PC-3 PIP cells (from Prof. Martin Pomper, Johns Hopkins)

[1] = test system: PC-3 PIP/flu tumor-bearing mice; conditions: 24 h p.i.
[2] = undiluted blood plasma
[3] = set-up: method as in PMID 29684274; conditions: after 24 h incubation, same experimental conditions

T1 sequence (Q04609 whole entry): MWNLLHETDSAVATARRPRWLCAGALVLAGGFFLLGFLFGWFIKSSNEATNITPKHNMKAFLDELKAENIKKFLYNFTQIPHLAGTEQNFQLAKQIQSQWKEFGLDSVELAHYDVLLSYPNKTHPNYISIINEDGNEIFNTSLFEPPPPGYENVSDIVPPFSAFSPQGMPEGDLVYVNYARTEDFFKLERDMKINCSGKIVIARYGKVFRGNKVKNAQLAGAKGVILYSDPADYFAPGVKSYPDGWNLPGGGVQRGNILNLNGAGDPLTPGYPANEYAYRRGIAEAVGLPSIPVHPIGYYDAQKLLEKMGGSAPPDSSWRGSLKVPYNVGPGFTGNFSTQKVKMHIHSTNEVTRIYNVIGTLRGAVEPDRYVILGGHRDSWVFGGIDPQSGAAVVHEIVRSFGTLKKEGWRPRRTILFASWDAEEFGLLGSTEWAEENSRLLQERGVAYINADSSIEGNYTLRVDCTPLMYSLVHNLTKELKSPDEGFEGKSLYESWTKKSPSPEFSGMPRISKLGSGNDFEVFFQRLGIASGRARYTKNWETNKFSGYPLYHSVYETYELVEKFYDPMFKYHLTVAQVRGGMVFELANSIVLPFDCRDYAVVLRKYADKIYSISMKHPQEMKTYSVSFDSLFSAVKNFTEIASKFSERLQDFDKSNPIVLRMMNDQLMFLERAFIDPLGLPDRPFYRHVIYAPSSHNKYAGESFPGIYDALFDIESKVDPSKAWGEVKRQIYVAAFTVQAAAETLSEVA

[^177Lu]Lu-PSMA-617
Kd (PSMA): 13 ± 1 nM
uptake in PC-3 PIP xenografts [1]: 37 ± 6 % IA/g
logD: −4.4
fraction bound to serum proteins [2]: 59 ± 1%
intact radioligand [3]: < 2%
